Experimental data reported in ChEMBL document CHEMBL3991601, “The target landscape of clinical kinase drugs” (Science, 2017).
Activity calls are given as the source filed them. For most assays here, no stated cut-off is given here; in the data, actives have a measured Kd and inactives only a lower limit.

Columns and labels:
[1] = molecular target: Fibroblast growth factor receptor 1 (Homo sapiens, UniProt P11362)
[2] = molecular target: T1, Acyl-CoA dehydrogenase family member 10 (Homo sapiens, UniProt Q6JQN1)
T1 sequence (Q6JQN1 whole entry): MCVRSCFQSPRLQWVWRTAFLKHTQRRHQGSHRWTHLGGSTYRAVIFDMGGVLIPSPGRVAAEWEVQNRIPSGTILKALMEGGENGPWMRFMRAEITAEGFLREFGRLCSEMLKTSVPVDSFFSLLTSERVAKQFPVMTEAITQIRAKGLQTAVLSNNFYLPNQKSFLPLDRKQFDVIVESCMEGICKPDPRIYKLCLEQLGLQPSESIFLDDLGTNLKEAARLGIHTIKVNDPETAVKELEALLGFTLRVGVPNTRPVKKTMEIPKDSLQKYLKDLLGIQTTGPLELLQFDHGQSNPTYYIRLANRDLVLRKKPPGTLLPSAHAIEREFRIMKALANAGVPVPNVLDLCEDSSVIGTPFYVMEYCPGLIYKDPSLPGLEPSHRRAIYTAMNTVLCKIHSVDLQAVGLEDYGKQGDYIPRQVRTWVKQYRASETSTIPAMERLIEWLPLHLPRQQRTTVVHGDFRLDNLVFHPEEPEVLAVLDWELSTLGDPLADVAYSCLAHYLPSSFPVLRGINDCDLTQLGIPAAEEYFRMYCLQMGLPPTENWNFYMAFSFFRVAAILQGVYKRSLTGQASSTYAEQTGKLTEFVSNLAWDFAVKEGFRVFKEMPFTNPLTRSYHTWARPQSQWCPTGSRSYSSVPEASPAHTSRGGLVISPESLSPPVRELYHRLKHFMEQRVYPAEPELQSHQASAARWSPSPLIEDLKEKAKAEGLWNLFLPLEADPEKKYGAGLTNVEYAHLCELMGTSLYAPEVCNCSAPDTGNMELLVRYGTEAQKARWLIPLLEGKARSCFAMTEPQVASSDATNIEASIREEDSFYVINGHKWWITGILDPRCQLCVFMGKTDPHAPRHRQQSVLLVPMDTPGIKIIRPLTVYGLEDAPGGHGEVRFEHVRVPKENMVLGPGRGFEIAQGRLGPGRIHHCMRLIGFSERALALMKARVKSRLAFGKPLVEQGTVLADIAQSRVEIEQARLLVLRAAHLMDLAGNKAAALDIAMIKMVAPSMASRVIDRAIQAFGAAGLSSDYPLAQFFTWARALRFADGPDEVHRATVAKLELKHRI

[3] = molecular target: Mitogen-activated protein kinase kinase kinase kinase 4 (Homo sapiens, UniProt O95819)
Sequence of Mitogen-activated protein kinase kinase kinase kinase 4 (O95819 whole entry): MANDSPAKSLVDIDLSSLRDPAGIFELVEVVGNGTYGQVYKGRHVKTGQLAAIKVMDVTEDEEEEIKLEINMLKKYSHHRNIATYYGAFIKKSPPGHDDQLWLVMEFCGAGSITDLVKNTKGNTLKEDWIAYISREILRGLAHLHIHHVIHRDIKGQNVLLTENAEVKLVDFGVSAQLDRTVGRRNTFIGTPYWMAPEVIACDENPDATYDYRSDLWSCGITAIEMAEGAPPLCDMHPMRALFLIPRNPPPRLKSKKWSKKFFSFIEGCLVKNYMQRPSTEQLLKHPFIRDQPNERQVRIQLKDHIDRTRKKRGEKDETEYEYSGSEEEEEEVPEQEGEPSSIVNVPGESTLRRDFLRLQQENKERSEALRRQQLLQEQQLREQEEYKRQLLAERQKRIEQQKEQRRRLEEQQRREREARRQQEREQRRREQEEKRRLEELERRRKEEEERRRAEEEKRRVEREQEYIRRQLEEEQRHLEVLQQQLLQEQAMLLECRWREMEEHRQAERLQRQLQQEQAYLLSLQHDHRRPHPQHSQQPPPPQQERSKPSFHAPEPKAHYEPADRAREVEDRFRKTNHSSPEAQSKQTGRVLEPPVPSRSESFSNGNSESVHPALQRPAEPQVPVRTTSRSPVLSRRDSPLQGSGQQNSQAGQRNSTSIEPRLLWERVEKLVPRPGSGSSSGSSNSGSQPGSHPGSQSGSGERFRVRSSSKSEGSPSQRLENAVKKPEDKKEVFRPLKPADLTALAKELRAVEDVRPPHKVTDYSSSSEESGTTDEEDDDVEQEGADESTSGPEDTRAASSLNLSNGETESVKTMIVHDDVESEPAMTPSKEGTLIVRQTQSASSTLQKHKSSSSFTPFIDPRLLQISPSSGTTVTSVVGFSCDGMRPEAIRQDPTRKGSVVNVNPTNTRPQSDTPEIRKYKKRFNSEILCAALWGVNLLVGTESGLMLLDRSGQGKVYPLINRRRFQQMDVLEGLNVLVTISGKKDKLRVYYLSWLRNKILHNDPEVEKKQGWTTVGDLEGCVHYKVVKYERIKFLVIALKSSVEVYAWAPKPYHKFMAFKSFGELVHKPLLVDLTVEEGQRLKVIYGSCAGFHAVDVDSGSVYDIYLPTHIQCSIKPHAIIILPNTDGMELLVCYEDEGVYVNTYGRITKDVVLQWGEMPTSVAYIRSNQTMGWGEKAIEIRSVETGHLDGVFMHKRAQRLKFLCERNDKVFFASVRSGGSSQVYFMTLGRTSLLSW

DNA topoisomerase 2-beta = DNA topoisomerase 2-beta (Homo sapiens, UniProt Q02880)
Sequence of DNA topoisomerase 2-beta (Q02880 whole entry): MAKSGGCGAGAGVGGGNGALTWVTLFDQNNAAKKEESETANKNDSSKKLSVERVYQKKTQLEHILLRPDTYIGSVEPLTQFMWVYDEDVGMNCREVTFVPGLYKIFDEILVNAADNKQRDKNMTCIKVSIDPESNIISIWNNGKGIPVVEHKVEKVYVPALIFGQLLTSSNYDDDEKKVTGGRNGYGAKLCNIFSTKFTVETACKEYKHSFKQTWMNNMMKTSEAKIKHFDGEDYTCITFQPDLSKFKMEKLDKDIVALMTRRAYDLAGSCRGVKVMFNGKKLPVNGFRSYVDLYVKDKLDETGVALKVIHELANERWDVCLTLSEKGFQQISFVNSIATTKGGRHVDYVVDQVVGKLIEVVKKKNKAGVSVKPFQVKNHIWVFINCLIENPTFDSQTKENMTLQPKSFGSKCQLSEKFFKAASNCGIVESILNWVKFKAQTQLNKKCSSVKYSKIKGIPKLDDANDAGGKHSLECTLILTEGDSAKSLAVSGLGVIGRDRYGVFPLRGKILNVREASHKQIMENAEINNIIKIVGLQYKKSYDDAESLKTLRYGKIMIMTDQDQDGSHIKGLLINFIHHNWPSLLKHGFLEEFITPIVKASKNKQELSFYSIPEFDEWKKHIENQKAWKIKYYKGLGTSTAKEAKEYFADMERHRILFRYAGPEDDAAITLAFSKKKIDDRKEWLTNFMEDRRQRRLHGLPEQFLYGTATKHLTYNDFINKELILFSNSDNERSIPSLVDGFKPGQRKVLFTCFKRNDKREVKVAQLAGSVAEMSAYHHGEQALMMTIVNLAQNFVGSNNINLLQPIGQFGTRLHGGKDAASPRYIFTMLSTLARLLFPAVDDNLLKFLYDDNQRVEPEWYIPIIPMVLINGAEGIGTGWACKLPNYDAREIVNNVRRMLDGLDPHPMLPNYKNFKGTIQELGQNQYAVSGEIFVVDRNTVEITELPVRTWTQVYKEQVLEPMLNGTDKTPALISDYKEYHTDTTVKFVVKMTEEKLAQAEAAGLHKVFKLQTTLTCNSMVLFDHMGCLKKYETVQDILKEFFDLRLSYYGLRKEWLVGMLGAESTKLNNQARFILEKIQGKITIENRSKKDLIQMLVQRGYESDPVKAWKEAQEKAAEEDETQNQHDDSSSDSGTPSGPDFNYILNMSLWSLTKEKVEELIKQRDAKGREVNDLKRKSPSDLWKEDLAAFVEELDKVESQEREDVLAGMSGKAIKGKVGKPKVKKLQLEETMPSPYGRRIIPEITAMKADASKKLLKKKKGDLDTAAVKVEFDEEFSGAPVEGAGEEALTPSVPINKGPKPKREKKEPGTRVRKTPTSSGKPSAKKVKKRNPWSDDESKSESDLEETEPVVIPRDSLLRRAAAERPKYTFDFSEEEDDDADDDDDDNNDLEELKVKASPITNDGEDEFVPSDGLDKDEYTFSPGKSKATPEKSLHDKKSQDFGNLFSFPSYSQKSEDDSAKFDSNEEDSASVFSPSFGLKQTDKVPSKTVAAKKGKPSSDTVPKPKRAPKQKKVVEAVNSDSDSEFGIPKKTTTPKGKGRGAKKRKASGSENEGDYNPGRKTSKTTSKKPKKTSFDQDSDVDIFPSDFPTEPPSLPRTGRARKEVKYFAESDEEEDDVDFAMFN

[4] = molecular target: Serine/threonine-protein kinase B-raf (Homo sapiens, UniProt P15056)
Sequence of Serine/threonine-protein kinase B-raf (P15056 whole entry): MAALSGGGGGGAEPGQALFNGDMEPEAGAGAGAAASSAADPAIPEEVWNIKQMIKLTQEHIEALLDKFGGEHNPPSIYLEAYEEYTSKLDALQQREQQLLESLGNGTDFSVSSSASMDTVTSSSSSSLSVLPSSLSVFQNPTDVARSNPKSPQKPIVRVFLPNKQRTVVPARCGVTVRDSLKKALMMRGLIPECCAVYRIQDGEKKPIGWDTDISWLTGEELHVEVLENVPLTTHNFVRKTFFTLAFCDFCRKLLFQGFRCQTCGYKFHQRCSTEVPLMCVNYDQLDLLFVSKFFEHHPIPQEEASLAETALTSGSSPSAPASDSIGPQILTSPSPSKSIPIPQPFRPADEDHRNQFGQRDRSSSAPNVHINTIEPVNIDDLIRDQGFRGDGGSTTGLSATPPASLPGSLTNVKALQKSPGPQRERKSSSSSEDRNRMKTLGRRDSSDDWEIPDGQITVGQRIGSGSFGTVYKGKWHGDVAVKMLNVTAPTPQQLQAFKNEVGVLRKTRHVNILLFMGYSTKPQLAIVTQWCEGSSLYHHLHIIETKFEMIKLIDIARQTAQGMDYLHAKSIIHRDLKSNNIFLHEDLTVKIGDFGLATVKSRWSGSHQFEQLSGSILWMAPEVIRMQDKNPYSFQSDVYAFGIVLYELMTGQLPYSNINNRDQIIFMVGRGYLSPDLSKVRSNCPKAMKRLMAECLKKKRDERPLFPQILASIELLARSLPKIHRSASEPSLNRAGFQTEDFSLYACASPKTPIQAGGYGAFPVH

[5] = molecular target: T2, Serine/threonine-protein kinase 4 (Homo sapiens, UniProt Q13043)
T2 sequence (Q13043 whole entry): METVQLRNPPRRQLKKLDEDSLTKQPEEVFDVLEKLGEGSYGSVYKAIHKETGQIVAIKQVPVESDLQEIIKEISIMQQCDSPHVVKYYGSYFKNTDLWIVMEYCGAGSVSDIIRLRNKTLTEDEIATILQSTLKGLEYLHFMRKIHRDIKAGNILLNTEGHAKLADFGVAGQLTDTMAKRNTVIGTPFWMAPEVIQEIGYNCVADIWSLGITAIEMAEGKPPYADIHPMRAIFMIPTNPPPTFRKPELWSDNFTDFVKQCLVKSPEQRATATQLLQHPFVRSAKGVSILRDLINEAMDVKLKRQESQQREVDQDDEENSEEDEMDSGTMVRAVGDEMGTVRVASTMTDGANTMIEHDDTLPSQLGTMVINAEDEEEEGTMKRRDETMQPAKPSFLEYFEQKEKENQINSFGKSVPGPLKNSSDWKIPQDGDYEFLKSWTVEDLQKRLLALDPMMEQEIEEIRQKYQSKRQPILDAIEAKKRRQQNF

[6] = molecular target: T3, NUAK family SNF1-like kinase 2 (Homo sapiens, UniProt Q9H093)
T3 sequence (Q9H093 whole entry): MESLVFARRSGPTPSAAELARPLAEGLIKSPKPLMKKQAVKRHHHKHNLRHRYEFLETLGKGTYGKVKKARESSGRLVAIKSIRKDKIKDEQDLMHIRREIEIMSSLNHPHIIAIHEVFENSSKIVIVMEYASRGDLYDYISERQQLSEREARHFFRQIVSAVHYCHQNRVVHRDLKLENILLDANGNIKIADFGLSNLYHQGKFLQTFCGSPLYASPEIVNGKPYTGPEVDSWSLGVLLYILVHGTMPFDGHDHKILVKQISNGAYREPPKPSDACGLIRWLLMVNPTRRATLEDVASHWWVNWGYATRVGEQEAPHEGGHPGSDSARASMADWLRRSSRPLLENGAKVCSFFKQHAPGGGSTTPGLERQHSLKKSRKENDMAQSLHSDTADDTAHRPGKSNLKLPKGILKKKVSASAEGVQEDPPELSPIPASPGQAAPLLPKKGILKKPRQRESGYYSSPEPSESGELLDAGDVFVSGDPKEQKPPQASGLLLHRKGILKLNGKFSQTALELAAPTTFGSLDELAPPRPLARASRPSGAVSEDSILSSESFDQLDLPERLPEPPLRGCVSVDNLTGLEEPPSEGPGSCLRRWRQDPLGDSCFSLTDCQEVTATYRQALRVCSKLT

LIM domain kinase 1 = LIM domain kinase 1 (Homo sapiens, UniProt P53667)
Sequence of LIM domain kinase 1 (P53667 whole entry, the tested form may be a part): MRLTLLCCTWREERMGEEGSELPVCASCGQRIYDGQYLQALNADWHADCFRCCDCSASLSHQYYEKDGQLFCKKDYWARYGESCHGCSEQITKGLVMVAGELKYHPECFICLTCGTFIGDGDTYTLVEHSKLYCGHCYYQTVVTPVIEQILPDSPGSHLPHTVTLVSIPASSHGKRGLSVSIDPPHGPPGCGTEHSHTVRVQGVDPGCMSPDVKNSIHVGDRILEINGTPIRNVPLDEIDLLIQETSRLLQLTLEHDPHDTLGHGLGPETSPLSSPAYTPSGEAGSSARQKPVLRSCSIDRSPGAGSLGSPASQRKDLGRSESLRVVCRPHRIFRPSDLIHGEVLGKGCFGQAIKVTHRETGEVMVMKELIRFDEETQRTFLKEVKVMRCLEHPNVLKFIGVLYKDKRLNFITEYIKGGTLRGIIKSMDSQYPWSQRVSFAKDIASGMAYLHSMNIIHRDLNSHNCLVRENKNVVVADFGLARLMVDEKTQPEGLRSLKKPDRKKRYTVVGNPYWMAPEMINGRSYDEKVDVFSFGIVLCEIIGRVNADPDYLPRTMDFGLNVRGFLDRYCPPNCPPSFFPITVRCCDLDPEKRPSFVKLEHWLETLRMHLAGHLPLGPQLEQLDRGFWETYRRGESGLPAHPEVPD

Measured: Kd

Sequence of Fibroblast growth factor receptor 1 (P11362 whole entry): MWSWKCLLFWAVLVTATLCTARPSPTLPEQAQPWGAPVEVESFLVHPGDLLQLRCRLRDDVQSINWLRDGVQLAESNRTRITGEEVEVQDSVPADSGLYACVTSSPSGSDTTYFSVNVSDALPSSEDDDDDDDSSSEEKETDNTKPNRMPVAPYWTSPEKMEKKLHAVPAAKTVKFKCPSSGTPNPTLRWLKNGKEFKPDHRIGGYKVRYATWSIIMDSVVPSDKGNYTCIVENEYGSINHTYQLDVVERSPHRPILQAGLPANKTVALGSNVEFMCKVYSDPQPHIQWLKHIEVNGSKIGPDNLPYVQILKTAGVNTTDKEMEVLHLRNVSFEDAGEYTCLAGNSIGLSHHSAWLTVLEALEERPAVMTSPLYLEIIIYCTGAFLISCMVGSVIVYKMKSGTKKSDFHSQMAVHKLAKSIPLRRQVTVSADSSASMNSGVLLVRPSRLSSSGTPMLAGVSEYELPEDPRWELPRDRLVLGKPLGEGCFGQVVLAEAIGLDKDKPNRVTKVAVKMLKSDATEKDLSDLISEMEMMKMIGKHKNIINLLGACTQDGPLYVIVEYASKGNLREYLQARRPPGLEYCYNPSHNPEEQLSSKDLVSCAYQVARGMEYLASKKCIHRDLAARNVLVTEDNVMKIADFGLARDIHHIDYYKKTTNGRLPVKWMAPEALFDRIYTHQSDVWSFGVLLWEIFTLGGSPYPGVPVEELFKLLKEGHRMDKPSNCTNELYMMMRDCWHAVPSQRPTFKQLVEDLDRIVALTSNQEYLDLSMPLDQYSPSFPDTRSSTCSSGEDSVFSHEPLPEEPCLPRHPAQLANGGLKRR

N[C@@H]1CCCN(c2c(/C=C3\SC(=O)NC3=O)cccc2-c2ccccc2)C1
inactive: [1] > 30 µM | [2] > 30 µM | [3] > 30 µM | DNA topoisomerase 2-beta > 30 µM | [4] > 30 µM | [5] > 30 µM | [6] > 30 µM | LIM domain kinase 1 > 30 µM

CN1CC[C@@H](c2c(O)cc(O)c3c(=O)cc(-c4ccccc4Cl)oc23)[C@@H]1CO
inactive: [1] > 30 µM | [2] > 30 µM | [3] > 30 µM | DNA topoisomerase 2-beta > 30 µM | [4] > 30 µM | [5] > 30 µM | [6] > 30 µM | LIM domain kinase 1 > 30 µM

Cc1cc(-c2cc(O)ccc2Cl)cc2nnc(Nc3ccc(OCCN4CCCC4)cc3)nc12
active: [4] 0.003 µM
inactive: [1] > 30 µM | [2] > 30 µM | [3] > 30 µM | DNA topoisomerase 2-beta > 30 µM | [5] > 30 µM | [6] > 30 µM | LIM domain kinase 1 > 30 µM

CNS(=O)(=O)Nc1nccc(Cc2c(C)c3ccc(Oc4ncccn4)cc3oc2=O)c1F [AVUTOMETINIB]
inactive: [1] > 30 µM | [2] > 30 µM | [3] > 30 µM | DNA topoisomerase 2-beta > 30 µM | [5] > 30 µM | [6] > 30 µM | LIM domain kinase 1 > 30 µM
0.007 µM: [4]

Cc1cc([C@@H](C)Nc2ccccc2C(=O)O)c2nc(N3CCOCC3)cc(=O)n2c1 [AZD-6482]
inactive: [1] > 30 µM | [2] > 30 µM | [3] > 30 µM | DNA topoisomerase 2-beta > 30 µM | [4] > 30 µM | [5] > 30 µM | [6] > 30 µM | LIM domain kinase 1 > 30 µM

COc1ccc(-c2ccc3c(N4CCOC[C@@H]4C)nc(N4CCOC[C@@H]4C)nc3n2)cc1CO [AZD-8055]
inactive: [1] > 30 µM | [2] > 30 µM | [3] > 30 µM | DNA topoisomerase 2-beta > 30 µM | [4] > 30 µM | [5] > 30 µM | [6] > 30 µM | LIM domain kinase 1 > 30 µM

C[C@@H](Nc1cc(F)cc(F)c1)c1cc(C(=O)N(C)C)cc2c(=O)cc(N3CCOCC3)oc12 [AZD-8186]
active: DNA topoisomerase 2-beta 0.936 µM
inactive: [1] > 30 µM | [2] > 30 µM | [3] > 30 µM | [4] > 30 µM | [5] > 30 µM | [6] > 30 µM | LIM domain kinase 1 > 30 µM

Cc1ccc(NC(=O)c2ccc(CN3CC[C@H](N(C)C)C3)c(C(F)(F)F)c2)cc1Nc1nccc(-c2cncnc2)n1 [BAFETINIB]
inactive: [1] > 30 µM | [2] > 30 µM | [3] > 30 µM | DNA topoisomerase 2-beta > 30 µM | [5] > 30 µM | [6] > 30 µM | LIM domain kinase 1 > 30 µM
active: [4] 1.14 µM

CCS(=O)(=O)N1CC(CC#N)(n2cc(-c3ncnc4[nH]ccc34)cn2)C1 [BARICITINIB]
inactive: [1] > 30 µM | [2] > 30 µM | [3] > 30 µM | DNA topoisomerase 2-beta > 30 µM | [4] > 30 µM | [5] > 30 µM | [6] > 30 µM | LIM domain kinase 1 > 30 µM

Cc1cc2c(F)c(Oc3ncnn4cc(OC[C@@H](C)OC(=O)[C@H](C)N)c(C)c34)ccc2[nH]1 [BRIVANIB ALANINATE]
inactive: [2] > 30 µM | DNA topoisomerase 2-beta > 30 µM | [4] > 30 µM | [5] > 30 µM | LIM domain kinase 1 > 30 µM
0.003 µM: [6]
active: [1] 3.9 µM | [3] 46.2 µM

CNC(=O)c1ccc(-c2cnc3ncc(Cc4ccc5ncccc5c4)n3n2)cc1F [CAPMATINIB]
inactive: [1] > 30 µM | [2] > 30 µM | [3] > 30 µM | DNA topoisomerase 2-beta > 30 µM | [4] > 30 µM | [5] > 30 µM | [6] > 30 µM | LIM domain kinase 1 > 30 µM

CO[C@H]1C[C@@H]2CC[C@@H](C)[C@@](O)(O2)C(=O)C(=O)N2CCCC[C@H]2C(=O)O[C@H]([C@H](C)C[C@@H]2CC[C@@H](OCCO)[C@H](OC)C2)CC(=O)[C@H](C)/C=C(\C)[C@@H](O)[C@@H](OC)C(=O)[C@H](C)C[C@H](C)/C=C/C=C/C=C/1C [EVEROLIMUS]
inactive: [1] > 30 µM | [2] > 30 µM | [3] > 30 µM | DNA topoisomerase 2-beta > 30 µM | [4] > 30 µM | [5] > 30 µM | [6] > 30 µM | LIM domain kinase 1 > 30 µM

COCCNCc1ccc(-c2cc3nccc(Oc4ccc(NC(=S)NC(=O)Cc5ccc(F)cc5)cc4F)c3s2)nc1 [GLESATINIB]
inactive: [1] > 30 µM | [2] > 30 µM | DNA topoisomerase 2-beta > 30 µM | [4] > 30 µM | [5] > 30 µM | [6] > 30 µM | LIM domain kinase 1 > 30 µM
0.6 µM: [3]

CC[C@H](Nc1ncnc2[nH]cnc12)c1nc2cccc(F)c2c(=O)n1-c1ccccc1 [IDELALISIB]
inactive: [1] > 30 µM | [2] > 30 µM | [3] > 30 µM | DNA topoisomerase 2-beta > 30 µM | [4] > 30 µM | [5] > 30 µM | [6] > 30 µM | LIM domain kinase 1 > 30 µM

Cn1cc(-c2ccc3nnc(C(F)(F)c4ccc5ncccc5c4)n3n2)cn1 [JNJ-38877605]
inactive: [1] > 30 µM | [2] > 30 µM | [3] > 30 µM | DNA topoisomerase 2-beta > 30 µM | [4] > 30 µM | [5] > 30 µM | [6] > 30 µM | LIM domain kinase 1 > 30 µM

COC(=O)[C@@]1(O)C[C@H]2O[C@]1(C)n1c3ccccc3c3c4c(c5c6ccccc6n2c5c31)C(=O)NC4 [K-252A]
active: [3] 0.019 µM | [5] 0.029 µM
inactive: [1] > 30 µM | [2] > 30 µM | DNA topoisomerase 2-beta > 30 µM | [4] > 30 µM | [6] > 30 µM | LIM domain kinase 1 > 30 µM

Cc1c(F)cc(C(=O)NC2CC2)cc1-c1ccc(C(=O)NCC(C)(C)C)cn1 [LOSMAPIMOD]
inactive: [1] > 30 µM | [2] > 30 µM | [3] > 30 µM | DNA topoisomerase 2-beta > 30 µM | [4] > 30 µM | [5] > 30 µM | [6] > 30 µM | LIM domain kinase 1 > 30 µM

Cn1cc(-c2ccc(F)c(C(F)(F)F)c2)nc1C1CCN(c2ncnc3[nH]ncc23)CC1 [LY-2584702]
inactive: [1] > 30 µM | [2] > 30 µM | [3] > 30 µM | DNA topoisomerase 2-beta > 30 µM | [4] > 30 µM | [5] > 30 µM | [6] > 30 µM | LIM domain kinase 1 > 30 µM
